Measurements from PMC9166630, “SAR Probing of KX2-391 Provided Analogues With Juxtaposed Activity Profile Against Major Oncogenic Kinases” (Frontiers in Oncology, 2022).
Where “and” joins values, the source holds several entries; their conditions need not be identical. Equal values may be shown once.

Tests used:
C-Jun = assay: Human phosphokinase array, c-Jun; assay type: cell-based
From the text: The kinome tree representation (Figure 7C), which was generated by raising the Kinase Score cut-off to >1.2, confirmed that, unlike tirbanibulin and our prototype molecule KX1-136, 4e’s effects were more observable on kinases other than the Src family such as the Eph and TEC families. […] Therefore, we screened compound 4e using the Human Phospho-Kinase Array® kit from R&D systems (Minneapolis, MN, USA). In this system, 35 phosphorylated YK and serine-threonine kinase (STK) enzymes in the untreated (control) and treated (test) HL60 cell lysates were captured on nitrocellulose membrane, pre-spotted with phosphokinase-specific capture antibodies, and then visualized by detection antibody cocktails (Figure 8). The difference in the spot intensity between untreated (control) and treated cells is proportional to change in the amount of the phosphorylated protein induced by 4e.
The phosphorylation profile of 48 kinases was performed using the Proteome Profiler Human Phospho-Kinase Antibody Array Kit by R&D Systems (Minneapolis, MN, USA) according to the protocol. Briefly, the total cellular protein was extracted using the Lysis buffer and was quantified using Bio-Rad DC Protein Assay kit (Hercules, CA, USA). Nitrocellulose membrane set (A&B), pre-spotted with kinase-specific capture antibodies, were first blocked with Array Buffer-1 at RT for 30 min on a rocking platform shaker. Approximately 600 µg of protein concentrate was diluted in the buffer provided and was added onto the membrane set, and the membranes were incubated overnight at 4°C in an 8-well plate. Subsequently, membranes were washed with Wash Buffer and incubated with appropriate Detection Antibody cocktails for 2 h at RT. Streptavadin-HRP (1:2000) was added onto membranes and incubated for 30 min at RT. Membranes were washed, and Chemiluminescent Detection Reagents 1&2 were applied in equal volumes for detection. The signals were detected on C-DiGit®Blot Scanner (LI-COR, Odyssey Imaging Systems, Lincoln, Nebraska, USA) using Image Studio 5.0 software.

EphA2 = biological target: T1, EphA2 (Homo sapiens, UniProt P29317); assay: PamChip tyrosine kinase microarray, EphA2; assay type: biochemical; settings: 4e 0.1 µM, HL60 lysate
T1 construct: endogenous in cells; host or cells: HL60 lysate
Procedure: (§1) The changes in kinase activities induced by treatment with 4e were monitored within the HL60 cell lines using PamGene’s (Hertogenbosch, Netherlands) PamChip® peptide microarray profiler, which quantifies the activities of 144 tyrosine kinases (YK) ([29], [30]) (Figure 7). Results are provided as a log fold change (LFC) heatmap and Mean Kinase Statistic. From the LFC it is apparent that compound 4e, at a concentration of 0.1 µM, induced sizable changes to the activity of several kinases within the cell signaling YK profile (Figure 7A).
(§2) An Upstream Kinase tool was used to generate a putative list of kinases responsible for phosphorylating the phospho-sites on the PamChip (Figure 7B) ([31]). It is an interpretation and is highly dependent on the contents of the underlying phosphorylation databases. A Kinase Score was used for ranking kinases based on their significance and specificity in terms of the set of peptides used for the corresponding kinase. Kinase Statistics indicates the overall change of the peptide set that represents the kinase. Kinase statistics value <0 indicates lower kinase activity in the compound spiked lysate and vice versa ([32], [33]). Table 5 lists the 20 most changed kinases within treated HL60 cell lysates by 0.1 μM 4e, ranked according to their Kinase Score.
The compound 4e was spiked into HL60 cell lysate at different concentrations (0.001, 0.01, 0.1, 1, 10 and 50 μM). In addition, DMSO was also spiked in HL60 lysate at low concentration (2% v/v) as control. Samples were profiled on PamGene’s Tyrosine Kinase (PTK) arrays in technical replicates, covering a total of 196 phosphorylation sites. Frozen HL60 cultured cell pellet was sent to PamGene. At PamGene, cells were lysed using a lysis buffer and proteases inhibitors cocktail. Protein concentration was measured using standard Bradford assay as per PamGene SOPs. These lysates were further used for generating the PTK activity profiles. For spiking, 4e was received as powder form and dissolved in DMSO at PamGene facility followed by storing at -20°C in small aliquots. PamGene used its in-house bioinformatics toolbox in combination with other methods to generate hypotheses of signaling pathways.

Blk = assay: PamChip tyrosine kinase microarray, Blk; assay type: biochemical, human; settings: 4e 0.1 µM, HL60 lysate
Procedure: as §1, §2
The two multiple-kinase tests (PamChip and Phosphokinase Profiler) provided strong evidence of very minor involvement of Src in the cellular activities of 4e. However, the question must be raised about the effect of the 4e on other SRC family kinase (SFK). To address this point, we must highlight that both R&D phosphokinase profiler and PamChip feature Yes, Fgr, Lyn, Lck and Src while Fyn, Hck, Blk and Frk activities are tested in the PamChip only. The signals of SFKs in the R&D Phosphokinase Profiler were too weak to detect in both untreated (control) and 4e-treated HL60 cells. In PamChip assay, most of SFK’s were not ranked in the top 20 affected kinases (Table 5). In addition, their Specificity Score were very low (Table 6) indicating their marginal importance to the cell killing activities of 4e. Fgr kinase which ranked 7th in the list (Table 5) was the only SFK member that seems to be affected by the compound, albeit with low Specificity Score (1.03).
The compound 4e was spiked into HL60 cell lysate at different concentrations (0.001, 0.01, 0.1, 1, 10 and 50 μM). In addition, DMSO was also spiked in HL60 lysate at low concentration (2% v/v) as control. Samples were profiled on PamGene’s Tyrosine Kinase (PTK) arrays in technical replicates, covering a total of 196 phosphorylation sites. Frozen HL60 cultured cell pellet was sent to PamGene. […] Protein concentration was measured using standard Bradford assay as per PamGene SOPs. […]

T1 sequence (P29317 24-976): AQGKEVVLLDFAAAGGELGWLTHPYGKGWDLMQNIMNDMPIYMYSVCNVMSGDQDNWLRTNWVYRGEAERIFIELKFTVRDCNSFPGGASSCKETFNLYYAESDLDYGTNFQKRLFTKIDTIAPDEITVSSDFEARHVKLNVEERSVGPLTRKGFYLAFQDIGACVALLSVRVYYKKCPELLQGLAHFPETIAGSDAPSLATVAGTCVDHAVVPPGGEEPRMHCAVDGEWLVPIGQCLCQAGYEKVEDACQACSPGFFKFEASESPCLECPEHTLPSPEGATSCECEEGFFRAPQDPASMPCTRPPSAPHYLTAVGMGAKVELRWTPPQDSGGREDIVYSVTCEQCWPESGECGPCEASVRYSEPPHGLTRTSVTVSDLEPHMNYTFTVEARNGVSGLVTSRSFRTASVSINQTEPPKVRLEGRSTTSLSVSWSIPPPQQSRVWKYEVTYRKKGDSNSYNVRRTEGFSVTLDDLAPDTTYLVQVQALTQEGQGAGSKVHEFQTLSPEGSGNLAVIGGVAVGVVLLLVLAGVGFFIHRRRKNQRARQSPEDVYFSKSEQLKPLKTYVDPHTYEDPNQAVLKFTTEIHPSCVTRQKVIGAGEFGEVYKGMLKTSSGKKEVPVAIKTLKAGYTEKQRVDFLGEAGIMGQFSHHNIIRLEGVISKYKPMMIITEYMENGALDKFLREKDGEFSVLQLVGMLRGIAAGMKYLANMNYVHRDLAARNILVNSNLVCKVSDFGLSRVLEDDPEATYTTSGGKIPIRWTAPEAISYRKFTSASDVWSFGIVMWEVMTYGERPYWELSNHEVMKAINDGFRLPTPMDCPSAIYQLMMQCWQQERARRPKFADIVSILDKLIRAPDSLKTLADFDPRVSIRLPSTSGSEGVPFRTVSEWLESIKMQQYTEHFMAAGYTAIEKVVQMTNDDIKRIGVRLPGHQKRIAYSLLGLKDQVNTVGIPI

O=C(Cc1ccc(NC(=O)c2cccc(Cl)c2)cc1)NCc1ccccc1 [Compound 4e, N-(4-(2-(benzylamino)-2-oxoethyl)phenyl)-3-chlorobenzamide]
phosphokinase signal after 4e exposure, C-Jun (C-Jun; HL60 cell lysate, treated): 1811.31
Change in Signal, C-Jun (C-Jun; treated vs untreated HL60): 829.81
% Change, C-Jun (C-Jun; treated vs untreated HL60, Ser63 phosphorylation increase): 84% and 84.55%
Mean Final Score (EphA2): 2.4004
Mean Kinase Statistic (EphA2): -0.7066
Mean Significance Score (EphA2): 1.5807
Mean Specificity Score (EphA2): 0.8197
Mean Final Score (Blk): 0.7362
Mean Kinase Statistic (Blk): -0.3552
Mean Significance Score (Blk): 0.6625
Mean Specificity Score (Blk): 0.0736
